The values that follow come from patent publication US20080254106A1 (SWITCH BIOTECH AG, priority 2004, published 2008).

Molecules are shown by their SMILES.

One assay relates to HaCaT keratinocytes. Nature of the assay: Proliferation of HaCaT keratinocytes (BrDU incorporation). The note with it: Homo sapiens, 48 hours treatment, relative to FCS stimulated positive control, mean of at least four experiments. The assay is classed as cell-based. Here is the method:
As a negative control cells were incubated with KBM.
For this purpose 5×10^3 HaCaT keratinocytes were seeded into 60 wells of a 96 well-plate in 200 μl KBM/10% FCS each and incubated for 24 hours at 37° C. […] At the end of the second incubation period the medium was removed and cell proliferation was determined by BrDU incorporation (Roche, #1 669 915) according to the manufacturer's instructions. […] All other values were divided by the 100% value to obtain the relative percentage of proliferation. […] At least four independent experiments were performed.

Assay [1] concerns α-CD3 stimulated peripheral blood mononuclear cells. Put plainly: Proliferation of anti-CD3 stimulated PBMCs/T cells ([3H]-thymidine incorporation). The assay is classed as cell-based. Here is the method:
Peripheral blood mononuclear cells (PBMCs) were isolated by Ficoll-gradient centrifugation from peripheral blood. 1×10^6 PBMCs/ml were re-suspended in RPMI/10% fetal calf serum (FCS) in 96-well plates in a concentration of 2×10^5 cells/well. […] As positive and negative controls PBMCs were used, which were stimulated by anti-CD3-antibody and non-stimulated PBMCs, respectively. The final concentration of the solvent DMSO was 0.1% in all examined wells. After two further days of incubation the cells were incubated with 1 μCi per well [^3H]-thymidine for 18 hours. The cells were then recovered on glass fibre filters by using a Micro 96 Harvester (Skatron Instruments, Lier, Norway). The incorporated radioactivity was analysed with a Packard Matrix 9600 Counter (Can berra Packard, Schwadorf, Austria). The experiments were carried out with the blood of three different donors. […] All other values were divided by the 100% value to obtain the relative percentage of proliferation.
For orientation: Incorporation of labelled thymidine or its analogues reports DNA synthesis.

Another assay deals with TNFα. Put plainly: Secretion of TNFα of LPS stimulated THP-1 cells (ELISA). The assay is classed as cell-based. The note with it: 50 ng/ml LPS, six hours, concentration of 10 μmol/l and higher. The procedure:
After stimulation with 50 ng/ml LPS the release of TNFα was determined.
After 2 h cells were stimulated with 50 ng/ml LPS. Six hours after LPS addition, culture supernatants were collected. TNFα concentrations were measured using an enzyme linked immunosorbent assay according to manufacturers protocol (R&D systems, #DTA00C). The TNFα concentrations reached after LPS stimulation without further treatment was set to 100%.
A general note: In an ELISA, binding on a coated surface is turned into a signal by an enzyme label.

Assay [2] deals with transplanted human psoriatic skin biopsies. Nature of the assay: Human psoriatic skin transplant SCID mouse model. It is filed as in vivo, SCID mice. The note with it: 50 mg/kg daily intraperitoneal, four weeks, in comparison to vehicle control animals.
Experimental: SCID mice were transplanted with human psoriatic skin biopsies. Two weeks after surgery therapy started. […] After four weeks of therapy the mice were sacrificed and biopsies were taken. 4 μm slices of the biopsies were stained with Masson trichrom. Epidermal areas were calculated. […] Treatment started two weeks after the transplantation. […] For therapy, 300 μl of a 5 mg/ml solution was daily injected intraperitonally (=50 mg/kg). The control group was injected in the same way with 300 μl vehicle. After four weeks the animals were sacrificed. The biopsies were removed, histologically stained (Masson trichrom) and examined for changes of the epidermal area.
Assay [3] can be described thus: DTH (oxazolone) mouse ear swelling model. The note with it: topical 4%, 1%, 0.1% and 0.01% in acetone/olive oil, compared to placebo control. The assay is classed as in vivo. Here is the method: A mixture of acetone/olive oil (4:1 vol/vol) is used as vehicle. Ear thickness is measured before start of the treatment (day 0), before challenge (day 6), and 24 h after challenge (d7, ear swelling response) (instrumentation e.g. Mitutoyo-Messgeräte GmbH). In addition, at the end of the experiment ear weights are determined by weighing 8 mm punch biopsies taken from both ears of each individual animal.

Another assay has as its target T1, monoamine oxidase A (Homo sapiens, UniProt P21397).
T1 sequence (P21397 1-527): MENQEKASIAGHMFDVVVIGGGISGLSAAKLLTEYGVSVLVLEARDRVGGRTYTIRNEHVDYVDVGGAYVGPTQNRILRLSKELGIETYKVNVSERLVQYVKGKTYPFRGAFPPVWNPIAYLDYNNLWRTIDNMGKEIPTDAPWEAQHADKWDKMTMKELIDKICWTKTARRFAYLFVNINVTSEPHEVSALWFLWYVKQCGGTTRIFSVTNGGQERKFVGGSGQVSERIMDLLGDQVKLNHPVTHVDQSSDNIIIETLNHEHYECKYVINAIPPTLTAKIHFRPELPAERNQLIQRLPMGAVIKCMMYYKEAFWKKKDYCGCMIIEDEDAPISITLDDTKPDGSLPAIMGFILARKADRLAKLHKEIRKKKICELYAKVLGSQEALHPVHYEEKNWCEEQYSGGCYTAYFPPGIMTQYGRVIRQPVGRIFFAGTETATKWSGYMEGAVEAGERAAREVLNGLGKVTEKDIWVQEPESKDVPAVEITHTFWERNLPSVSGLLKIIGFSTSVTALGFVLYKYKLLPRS
The note with it: proposed mechanism of action; cited from earlier work.

The test system of the next assay is noradrenaline reuptake. The note with it: cited from earlier work.
Assay [4] deals with 5-hydroxytryptamine reuptake. The note with it: cited from earlier work.
For the next assay, the system named is dopaminergic system. The note with it: cited from earlier work.
The subject of a further assay is cholinergic system. The note with it: cited from earlier work.

Consider `Cc1ccc2c(c1)c1c3n2CCNC3CCC1` (centres unmarked) [Pirlindole, 2,3,3a,4,5,6-hexahydro-8-methyl-1H-pyrazino[3,2,1-jk]carbazole], for which the IC50 was found to be 47 µM in the assay with HaCaT keratinocytes and 16 µM in assay [1] (PBMC, 10 μg/ml soluble anti-CD3-antibody, [3H]-thymidine, three donors, mean). The “Inhibitory effect on proliferation in vitro” value in [1] (at a concentration of Pirlindole of 10 μmol/l (examples 2, 3)) is “inhibitory effect”. Further, the “Release of TNFα” value in the assay with TNFα is “clear inhibition”. In addition, in assay [2], the “Epidermal area of the transplants” value was “clearly decreased”. Besides, the “Parameters of inflammation severity (ear weight, ear thickness)” value in assay [3] is on record as “improvement of one or more parameters of inflammation severity”. Besides, the “Inhibition of monoamine oxidase A” value on monoamine oxidase A is “selective and reversible inhibition”. Besides, the “Effect on noradrenaline reuptake” value in the assay on noradrenaline reuptake is “inhibitory effect”. Further, the “Effect on 5-hydroxytryptamine reuptake” value in assay [4] was “inhibitory effect”. Moreover, the “Effect on the dopaminergic system” value in the assay on dopaminergic system is recorded as “no effect”. Moreover, in the assay on cholinergic system, the “Effect on the cholinergic system” value is reported as “no effect”.

As a reminder, the IC50 is the midpoint of a concentration-inhibition curve. A higher IC50 goes with a need for much substance.
